Article PMC3740200 (Dalton transactions (Cambridge, England : 2003), 2012)
Read-outs that look alike come from different tables or passages of the source.

Assays:
DaCld(W227F) = DaCld(W227F) (Dechloromonas aromatica, UniProt Q47CX0, W261F); assay: Equilibrium binding of heme ligands
W156F DaCld = W156F DaCld (Dechloromonas aromatica, UniProt Q47CX0, W190F); assay: Equilibrium binding of heme ligands
WT DaCld = conditions: cited from earlier work

Chain of DaCld(W227F) (Q47CX0 32-282 W261F): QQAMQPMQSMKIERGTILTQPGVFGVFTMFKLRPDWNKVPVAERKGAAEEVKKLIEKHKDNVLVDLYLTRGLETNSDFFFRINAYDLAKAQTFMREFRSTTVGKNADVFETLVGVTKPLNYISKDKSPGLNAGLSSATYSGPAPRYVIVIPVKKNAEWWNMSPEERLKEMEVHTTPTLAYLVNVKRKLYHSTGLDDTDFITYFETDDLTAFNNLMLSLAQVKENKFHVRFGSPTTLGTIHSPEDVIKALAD
Chain of W156F DaCld (Q47CX0 32-282 W190F): as the sequence (Q47CX0 32-282 W261F) above, with W159F, F230W counted along it

SMILES | Kd (DaCld(W227F)) [µM] | Kd (W156F DaCld) [µM] | Kd (WT DaCld; pH 7, 100 mM phosphate, 25 °C, ref [16]) [µM] | Kd (WT DaCld; pH 7) [µM] | Kd (DaCld(W227F); pH 7) [µM] | Kd (W156F DaCld; pH 7) [µM]
c1c[nH]cn1 [Imidazole] | 17.5 ± 1.5 | 26.6 ± 3.5 | 9.6 ± 0.3 |  |  | 
F [F^-, fluoride] | 3800 ± 900 |  |  | 15000 ± 1000 |  | 
[N-]=[N+]=[N-] [N3^-, azide] |  |  |  | 8.3 ± 0.1 | 7 ± 0.3 | 34.5 ± 3.1
